Measurements taken from US12331322B2, “Agent for accelerating growth of pluripotent stem cells” (Oriental Yeast Co., Ltd., priority 2017, dated 2025).

Legend:
iPS cells (201B7) [1] = experiment: WST assay, growth of iPS cells (201B7) in culture medium with β-NMN or NAM; type: cell-based, human; conditions: for absorbance values at 450 nm (ref. 595 nm), WST assay, compared with basal medium: Example 2, FIG. 2, 0.2 or 0.4 mM added to E8 medium
Protocol: As iPS cells, 201B7 line which is human iPS cells was used. For iPS cells, an E8 medium (LTC) containing 19.4 mg/L of insulin, 10.7 mg/L of transferrin, 100 μg/L of bFGF, 2 μg/L of TGFβ, 14 μg/L of sodium selenite, 64 mg/L of ascorbic acid, and 543 mg/L of NaHCO3 in DMEM/F12 was used as the basal medium. First, iPS cells cultured in the basal medium were separated from a culture vessel by a cell-peeling solution and recovered. The recovered cells were counted and seeded in each well of a Matrigel-coated 96-well plate at 1000 to 2000 cells/well. At this time, a ROCK inhibitor was added to each well. The 96-well plate was cultured at 37° C. for 1 day to allow the cells to adhere, and then the medium containing the ROCK inhibitor was removed from each well, the medium was replaced with a medium obtained by adding, to the basal medium, β-NMN (Oriental Yeast Co., Ltd.) so that a final concentration became 0 to 2 mM, and culturing was performed for 3 to 4 days. Thereafter, a growth ability of cells surviving in each well was measured by water-soluble tetrazolium salts (WST) assay. Specifically, after adding WST-1 (manufactured by Nacalai Tesque) to each well and incubating at 37° C. for 1 to 4 hours, absorbance values at 450 nm (ref. 595 nm) were measured using a microplate reader (manufactured by BMG LABTECH). The term “absorbance value (450 to 595 nm)” is an absorbance value at 450 nm using an absorbance value at 595 nm as a reference value, and is specifically a value obtained by subtracting an absorbance value at 595 nm from an absorbance value at 450 nm. Specifically, iPS cells were cultured and the WST assay was performed in the same manner as in Example 1 except that the medium added after removing the medium containing the ROCK inhibitor was changed to a culture medium to which β-NMN was added so that a final concentration became 0, 0.2, or 0.4 mM, or a culture medium to which NAM was added so that a final concentration became 0, 0.2, or 0.4 mM. The iPS cells cultured in the basal medium used in Example 1 were separated from a culture vessel by a cell-peeling solution and recovered. The recovered cells were counted and seeded in each well of a Matrigel-coated 96-well plate at 1000 to 2000 cells/well. At this time, a ROCK inhibitor and β-NMN having a final concentration of 0 to 1 mM were added to each well. The cells in 96-well plate was cultured at 37° C. for 1 day to allow the cells to adhere, and then the medium containing the ROCK inhibitor was removed from each well, the medium was replaced with a culture medium obtained by adding, to the basal medium, β-NMN so that a final concentration became 0 to 1 mM, and culturing was performed for 3 to 4 days. Thereafter, WST assay was performed in the same manner as in Example 1. The results of measuring absorbance values at 450 nm (ref. 595 nm) of each cells cultured in a medium to which both ROCK inhibitor and β-NMN were added are shown in FIG. 4.

iPS cells (253G1) = experiment: WST assay, growth of iPS cells (253G1) in culture medium with β-NMN or NAM; type: cell-based; conditions: for absorbance values at 450 nm (ref. 595 nm), WST assay, compared with basal medium: Example 3, FIG. 3, added to E8 medium
Protocol: First, iPS cells cultured in the basal medium were separated from a culture vessel by a cell-peeling solution and recovered. The recovered cells were counted and seeded in each well of a Matrigel-coated 96-well plate at 1000 to 2000 cells/well. At this time, a ROCK inhibitor was added to each well. The 96-well plate was cultured at 37° C. for 1 day to allow the cells to adhere, and then the medium containing the ROCK inhibitor was removed from each well, the medium was replaced with a medium obtained by adding, to the basal medium, β-NMN (Oriental Yeast Co., Ltd.) so that a final concentration became 0 to 2 mM, and culturing was performed for 3 to 4 days. Thereafter, a growth ability of cells surviving in each well was measured by water-soluble tetrazolium salts (WST) assay. Specifically, after adding WST-1 (manufactured by Nacalai Tesque) to each well and incubating at 37° C. for 1 to 4 hours, absorbance values at 450 nm (ref. 595 nm) were measured using a microplate reader (manufactured by BMG LABTECH). The term “absorbance value (450 to 595 nm)” is an absorbance value at 450 nm using an absorbance value at 595 nm as a reference value, and is specifically a value obtained by subtracting an absorbance value at 595 nm from an absorbance value at 450 nm. iPS cells were cultured in culture medium containing β-NMN or NAM, and the effects of β-NMN and NAM on growth were compared. As iPS cells, 253G1 line was used. Specifically, iPS cells were cultured and WST assay was performed in the same manner as in Example 1 except that 253G1 line was used instead of 201B7 line.

iPS cells (201B7) [2] = experiment: Alkaline phosphatase measurement test (undifferentiated marker) on iPS cells (201B7); type: cell-based, human; conditions: Example 4, FIG. 5, β-NMN up to 1 mM added with ROCK inhibitor, vs β-NMN-free medium
Protocol: iPS cells were cultured in a culture medium containing β-NMN, and the effects of β-NMN on differentiation potential and growth were examined. As iPS cells, a 201B7 line was used. The differentiation potential was examined using the enzyme activity of alkaline phosphatase, which is an undifferentiated marker, as an indicator. First, the iPS cells cultured in the basal medium used in Example 1 were separated from a culture vessel by a cell-peeling solution and recovered. The recovered cells were counted and seeded in each well of a Matrigel-coated 96-well plate at 2000 cells/well. At this time, the ROCK inhibitor and β-NMN having a final concentration of 0 to 1 mM were added to each well. The cells in 96-well plate was cultured at 37° C. for 1 day to allow the cells to adhere, and then the medium containing the ROCK inhibitor was removed from each well, the medium was replaced with a medium obtained by adding, to the basal medium, β-NMN so that a final concentration became 0 to 1 mM, and culturing was performed for 3 to 4 days. During this period, the medium was replaced daily. […] After drying the wells, a bicarbonate buffer containing […], which is an alkaline phosphatase measurement reagent, was added and incubated at 37° C. for 30 minutes, and then absorbance at 405 nm was measured using a microplate reader.

[3] = system: Human mesenchymal stem cells (human MSCs); experiment: WST assay, proliferative activity of human mesenchymal stem cells; type: cell-based; conditions: 72 hours
Protocol: Human MSCs purchased from Lonza were used. As a basal medium for human MSCs, a dedicated maintenance medium purchased from Lonza was used. Human MSCs were seeded in 96-well plates (Nunc) at 2×10^3 cells/well (n=3 to 4). They were cultured at 37° C. in a CO2 incubator to allow them to adhere, and then β-NMN (manufactured by Oriental Yeast Co., Ltd.) was added so that a final concentration became 1.0, 0.1, 0.01, or 0.001 mM, and culture was further performed at 37° C. in a CO2 incubator for 72 hours. Thereafter, proliferative activity of cells in each well was measured with WST assay. Specifically, after adding a viable cell count reagent SF (Nacalai Tesque) to each well and incubating at 37° C. for 1 to 4 hours, absorbance at 450 nm was measured with the reference wavelength at 620 nm using a microplate reader (absorbance values at 450 nm (ref. 620 nm) (BMG LABTECH). The term “absorbance values at 450 nm (ref. 620 nm)” is an absorbance value at 450 nm using an absorbance value at 620 nm as a reference value, and is specifically a value obtained by subtracting an absorbance value at 620 nm from an absorbance value at 450 nm. [0045]

iPS cells (201B7) [4] = experiment: Flow cytometry of undifferentiated markers (SSEA4, low sulfated keratan sulfate) in iPS cells (201B7); type: cell-based, human; conditions: 5 or more passages, vs 0 mM
Protocol: The differentiation potential of iPS cells maintained and grown in the presence of β-NMN was confirmed. As iPS cells, a 201B7 line was used. Specifically, iPS cells were seeded in a 35 mm dish coated with Matrigel (Corning) at 1.5×10^4 cells/dish. As culture medium in which β-NMN was added to a basal medium (E8 medium) of iPS cells so that a final concentration became 0, 0.25, or 1 mM was used. At the time of seeding, Rho-dependent apoptosis was suppressed using a culture medium to which a Rock inhibitor was added so that a final concentration became 10 μM. The medium was replaced daily and the cells were passaged on day 5 and 6. iPS cells cultured for 5 or more passages in the medium to which β-NMN was added were stained with each of antibodies against SSEA4 and against low sulfated keratan sulfate which are undifferentiated markers, and cells expressing the undifferentiated markers were analyzed with a flow cytometer.

| Compound | absorbance values at 450 nm (ref. 595 nm), WST assay, compared with basal medium (iPS cells (201B7) [1]) | absorbance values at 450 nm (ref. 595 nm), WST assay, compared with basal medium (iPS cells (253G1)) | absorbance values at 405 nm, alkaline phosphatase measurement test (iPS cells (201B7) [2]) | absorbance values at 450 nm (ref. 595 nm), WST assay (iPS cells (201B7) [1]; Example 1, FIG. 1, medium containing 0.1 mM or more of β-NMN vs β-NMN-free medium, 3 to 4 days) | absorbance values at 450 nm (ref. 595 nm), WST assay (iPS cells (201B7) [1]; Example 1, FIG. 1, β-NMN 0.8 mM or more) | absorbance values at 450 nm (ref. 595 nm), WST assay (iPS cells (201B7) [1]; Example 1, FIG. 1, β-NMN 0.1 to 0.2 mM) | absorbance values at 450 nm (ref. 595 nm), WST assay (iPS cells (201B7) [1]; Example 1, FIG. 1, β-NMN 0.2 to 0.6 mM) | absorbance values at 450 nm (ref. 595 nm), WST assay, β-NMN-added medium compared with NAM-added medium (iPS cells (201B7) [1]; Example 2, FIG. 2, final concentration 0.2 mM and 0.4 mM) | absorbance values at 450 nm (ref. 595 nm), WST assay (effect on growth) (iPS cells (201B7) [1]; Example 4, FIG. 4, β-NMN 0 to 1 mM added together with ROCK inhibitor at seeding and afterwards) | absorbance values at 450 nm (ref. 595 nm), WST assay, β-NMN-added medium compared with NAM-added medium (iPS cells (253G1); Example 3, FIG. 3, final concentration 0.2 mM and 0.4 mM) | proliferative activity of human MSCs (absorbance, WST assay), overall ([3]; addition of β-NMN 0.001 to 1.0 mM) | Absorbance value at450 nm (ref. 620 nm) ([3]; β-NMN concentration 0.001 mM) | Absorbance value at450 nm (ref. 620 nm) ([3]; β-NMN concentration 0.01 mM) | Absorbance value at450 nm (ref. 620 nm) ([3]; β-NMN concentration 0.1 mM) | Absorbance value at450 nm (ref. 620 nm) ([3]; β-NMN concentration 1 mM) | Expression of SSEA4 (flow cytometry, anti-SSEA4 antibody) (iPS cells (201B7) [4]; Example 6, FIGS. 6 to 8, 0.25 mM or 1 mM of β-NMN) | Expression of low sulfated keratan sulfate (flow cytometry, R10G antibody) (iPS cells (201B7) [4]; Example 6, FIGS. 9 to 11, 0.25 mM or 1 mM of β-NMN) |
| --- | --- | --- | --- | --- | --- | --- | --- | --- | --- | --- | --- | --- | --- | --- | --- | --- | --- |
| NC(=O)c1cccnc1 [NAM, nicotinamide, reference compound] | higher absorbance values than cells cultured in the basal medium | slightly higher absorbance value than that of the cells cultured in the basal medium | – | – | – | – | – | – | – | – | – | – | – | – | – | – | – |
| NC(=O)c1ccc[n+]([C@@H]2O[C@H](COP(=O)([O-])O)[C@@H](O)[C@H]2O)c1 [β-NMN, β-nicotinamide mononucleotide] | higher absorbance values than cells cultured in the basal medium | higher absorbance value than that of the cell cultured in the basal medium | higher than that of the cells cultured in the β-NMN-free medium | greater than that of the cells cultured in the β-NMN-free medium | tended to slightly decrease | increased in a concentration-dependent manner | the absorbance value was the same | significantly higher than that of the cells cultured in the NAM-added medium | growth-accelerating effect on iPS cells was obtained in a β-NMN concentration-dependent manner | significantly higher than that of the cells cultured in the NAM-added medium | increased the absorbance value and accelerated proliferative activity | 0.573 ± 0.0312 | 0.604 ± 0.0587 | 0.634 ± 0.0411 | 0.615 ± 0.0340 | maintained | maintained |
